Test results published in PubChem BioAssay (NCI).
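GI50: concentration for 50% inhibition of growth. TGI is the concentration that stops growth completely.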

Tests used:
Experiment in all cases: growth of human tumour cells (NCI), 384-well format
OVCAR-5 ovarian = test system: OVCAR-5 ovarian
M14 melanoma = test system: M14 melanoma
MALME-3M melanoma = test system: MALME-3M melanoma
NCI-H460 NSCLC = test system: NCI-H460 NSCLC
UACC-257 melanoma = test system: UACC-257 melanoma
OVCAR-4 ovarian = test system: OVCAR-4 ovarian
EKVX NSCLC = test system: EKVX NSCLC
HOP-62 NSCLC = test system: HOP-62 NSCLC
SK-MEL-28 melanoma = test system: SK-MEL-28 melanoma
HOP-92 NSCLC = test system: HOP-92 NSCLC
BT-549 breast = test system: BT-549 breast
LOX IMVI melanoma = test system: LOX IMVI melanoma
HCT-116 colon = test system: HCT-116 colon

Question: What does the source list for `Nc1nc(OCc2cc(Br)cs2)c2[nH]cnc2n1`?
Answer: GI50 (OVCAR-5 ovarian): > 95.3 µM; TGI (OVCAR-5 ovarian): > 100 µM; GI50 (M14 melanoma): 47.9 µM; TGI (M14 melanoma): > 100 µM; GI50 (MALME-3M melanoma): 55.1 µM; TGI (MALME-3M melanoma): > 100 µM; GI50 (NCI-H460 NSCLC): 40.3 µM; TGI (NCI-H460 NSCLC): > 100 µM; GI50 (UACC-257 melanoma): 51.7 µM; TGI (UACC-257 melanoma): > 100 µM; GI50 (OVCAR-4 ovarian): > 78.7 µM; TGI (OVCAR-4 ovarian): > 100 µM; GI50 (EKVX NSCLC): 39.9 µM; TGI (EKVX NSCLC): > 100 µM; GI50 (HOP-62 NSCLC): 36.7 µM; TGI (HOP-62 NSCLC): 99.4 µM; GI50 (SK-MEL-28 melanoma): > 100 µM; TGI (SK-MEL-28 melanoma): > 100 µM; GI50 (HOP-92 NSCLC): 40.8 µM; TGI (HOP-92 NSCLC): > 100 µM; GI50 (BT-549 breast): 21.8 µM; TGI (BT-549 breast): 53.5 µM; GI50 (LOX IMVI melanoma): 22.5 µM; TGI (LOX IMVI melanoma): 47.8 µM; GI50 (HCT-116 colon): 38.4 µM; TGI (HCT-116 colon): > 100 µM
